PubChem BioAssay AID1918944 (Molecular Pharmacology Branch, DTP, NCI, 2023)

System: 786-0 complex spheroid viability
Assay: Anticancer human tumor 786-0 cell line growth inhibition;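 also: spheroids exposed to agents for seven days before readout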
Details: for IC50: curve of first compound; for viability, T/C: stronger effect = lower value
Source text: Multicellular complex tumor spheroid response to LSD1 Inhibitor Iadademstat in combination with a variety of drugs and investigational agents in selected tumor cell lines
The current study was undertaken to assess response to LSD1 inhibitors in combination with standard-of-care drugs and investigational agents in solid tumor complex spheroid models as well as in the K-562 leukemia. Complex spheroids include a stromal component modeled by human endothelial cells (HUVEC) and fibroblasts modeled by human mesenchymal stem cells (MSCs). The concentration ranges selected for each drug and investigational agent were based upon clinically achievable concentrations if the clinical Cmax of the agent was known.
Compounds. The drugs and investigational agents used in this study are listed on Table 1. All of the agents used, including staurosporine (NSC755774) and gemcitabine (NSC613327), were obtained from the Developmental Therapeutics Program, NCI. FDA-approved anticancer drugs are available from the NCI at http://dtp.nci.nih.gov/branches/dscb/oncology_drugset_explanation.html. Drugs and investigational agents were >95% pure by proton nuclear magnetic resonance (NMR) and liquid chromatography/mass spectrometry (LC/MS). Stock solutions were prepared at 400x in DMSO, stored at -70 degrees C, and diluted in fresh medium prior to their use. The final concentration of DMSO in cell culture wells never exceeded 0.25% (v/v). The FDA-approved anticancer drug set is available from the Developmental Therapeutics Program at https://dtp.cancer.gov/organization/dscb/obtaining/available_plates.htm. All drugs and investigational agents were tested over a range starting from a high concentration at or near the clinical Cmax and decreasing in half-log increments. If the clinical Cmax for an agent had not been determined, the highest concentration tested was 10 microM.
Cell Lines. The patient-derived cancer cell (PDC) lines: 292921-168-R-J2-PDC, K24384-001-R-PDC, and 521955-158-R2-J5-PDC pancreatic carcinomas, 556581-035-R-J1 ovarian carcinoma, 324938-238-R-J1-PDC, 855422-203-R-J1-PDC and 883617-216-R-J1-PDC urothelial bladder carcinomas, 743489-274-T-PDC renal cell carcinoma, 138582-R-J1 Merkel cell tumor, K60290-347-R-J1 and K57222-313-R-J1-PDC glioblastomas, 653999-131-R-J2-PDC, LG0703-F948-PDC, and 349418-098-R-PDC non-small cell lung carcinomas, 885512-296-R-J2-PDC, 171881-019-R-J1-PDC breast carcinomas and 186277-243-T-J2-PDC and 233499-124-R-J2-PDC colon carcinomas were obtained from the NCI Patient-Derived Models Repository (PDMR, https://pdmr.cancer.gov). The established cell lines NCI/ADR-RES (RRID:CVCL_14520 and OVCAR-5 (RRID:CVCL_1628) ovarian carcinomas, 786-O (RRID:CVCL_1051) and A498 (RRID:CVCL_A498) renal cell carcinoma, NCI-H211 (ATCC, cat. CRL-5824; RRID:CVCL_1529), NCI-H196 (ATCC, cat. CRL-5823, RRID:CVCL_1509), SW 1271 (ATCC, cat. CRL-2177, RRID:CVCL_1716) and NCI-H1876 (ATCC, cat. CRL-5902, RRID:CVCL_1503) small cell lung carcinomas, MDA-MB-231 (RRID:CVCL_0062) and MDA-MB-468 (RRID:CVCL_0419)breast carcinomas (10-12). Pooled donor human umbilical vein endothelial cells (HUVEC, Lonza, cat. CC-2519) and human mesenchymal stem cells (hMSC, Lonza, cat. PT-2501) were purchased from Lonza (Walkersville, MD).
Cell Culture. All cells were maintained in an incubator at 37 degrees C and 5% CO2 with 95% humidity. The PDC lines were cultured according to standard operating procedures established by the NCI PDMR (https://pdmr.cancer.gov). Briefly all PDCs were thawed and cultured in Matrigel-coated flasks prepared with a working solution of 1X Ham's F-12 nutrient mix, without supplementation (Invitrogen, Waltham, MA, cat. 11765054), 100 U/mL penicillin-streptomycin (Invitrogen, cat. 15140122), and 2.5% Matrigel (Corning Inc., Corning, NY, cat. 354248) for the first three passages. […]

Structure (SMILES): Nc1ccccc1NC(=O)c1ccc(CNC(=O)OCc2cccnc2)cc1 + NC1CC1c1ccc(-c2cccc(O)c2)cc1
- IC50 (second compound 0.1 µM): 1520 nM
- IC50 (second compound 0.316 µM): 1770 nM
- IC50 (second compound 1 µM): 1520 nM
- IC50 (second compound 3.16 µM): 1380 nM
- IC50 (second compound 10 µM): 1370 nM
- viability, T/C (second compound 0.1 µM, first compound 0.00949 µM): 107%
- viability, T/C (second compound 0.1 µM, first compound 0.03 µM): 108%
- viability, T/C (second compound 0.1 µM, first compound 0.0949 µM): 97.8%
- viability, T/C (second compound 0.1 µM, first compound 0.3 µM): 96.1%
- viability, T/C (second compound 0.1 µM, first compound 0.949 µM): 66.3%
- viability, T/C (second compound 0.1 µM, first compound 3 µM): 25.6%
- viability, T/C (second compound 0.316 µM, first compound 0.00949 µM): 113%
- viability, T/C (second compound 0.316 µM, first compound 0.03 µM): 110%
- viability, T/C (second compound 0.316 µM, first compound 0.0949 µM): 112%
- viability, T/C (second compound 0.316 µM, first compound 0.3 µM): 103%
- viability, T/C (second compound 0.316 µM, first compound 0.949 µM): 78.8%
- viability, T/C (second compound 0.316 µM, first compound 3 µM): 25.8%
- viability, T/C (second compound 1 µM, first compound 0.00949 µM): 103%
- viability, T/C (second compound 1 µM, first compound 0.03 µM): 114%
- viability, T/C (second compound 1 µM, first compound 0.0949 µM): 110%
- viability, T/C (second compound 1 µM, first compound 0.3 µM): 91.8%
- viability, T/C (second compound 1 µM, first compound 0.949 µM): 71%
- viability, T/C (second compound 1 µM, first compound 3 µM): 21.1%
- viability, T/C (second compound 3.16 µM, first compound 0.00949 µM): 99.4%
- viability, T/C (second compound 3.16 µM, first compound 0.03 µM): 102%
- viability, T/C (second compound 3.16 µM, first compound 0.0949 µM): 98%
- viability, T/C (second compound 3.16 µM, first compound 0.3 µM): 89.9%
- viability, T/C (second compound 3.16 µM, first compound 0.949 µM): 64.3%
- viability, T/C (second compound 3.16 µM, first compound 3 µM): 20.7%
- viability, T/C (second compound 10 µM, first compound 0.00949 µM): 103%
- viability, T/C (second compound 10 µM, first compound 0.03 µM): 101%
- viability, T/C (second compound 10 µM, first compound 0.0949 µM): 97.9%
- viability, T/C (second compound 10 µM, first compound 0.3 µM): 83.1%
- viability, T/C (second compound 10 µM, first compound 0.949 µM): 67.2%
- viability, T/C (second compound 10 µM, first compound 3 µM): 17.5%

Structure (SMILES): CC[C@@]1(O)C(=O)OCc2c1cc1n(c2=O)Cc2cc3c(CN(C)C)c(O)ccc3nc2-1 + NC1CCC(NC2CC2c2ccccc2)CC1
- IC50 (second compound 0.1 µM): 5.11 nM
- IC50 (second compound 0.316 µM): 5.13 nM
- IC50 (second compound 1 µM): 5.2 nM
- IC50 (second compound 3.16 µM): 4.39 nM
- IC50 (second compound 10 µM): 3.01 nM
- viability, T/C (second compound 0.1 µM, first compound 0.000316 µM): 114%
- viability, T/C (second compound 0.1 µM, first compound 0.001 µM): 113%
- viability, T/C (second compound 0.1 µM, first compound 0.00316 µM): 77.3%
- viability, T/C (second compound 0.1 µM, first compound 0.01 µM): 11.8%
- viability, T/C (second compound 0.1 µM, first compound 0.0316 µM): 5.31%
- viability, T/C (second compound 0.1 µM, first compound 0.1 µM): 3.53%
- viability, T/C (second compound 0.316 µM, first compound 0.000316 µM): 111%
- viability, T/C (second compound 0.316 µM, first compound 0.001 µM): 105%
- viability, T/C (second compound 0.316 µM, first compound 0.00316 µM): 78.3%
- viability, T/C (second compound 0.316 µM, first compound 0.01 µM): 10.8%
- viability, T/C (second compound 0.316 µM, first compound 0.0316 µM): 5.38%
- viability, T/C (second compound 0.316 µM, first compound 0.1 µM): 3.62%
- viability, T/C (second compound 1 µM, first compound 0.000316 µM): 115%
- viability, T/C (second compound 1 µM, first compound 0.001 µM): 105%
- viability, T/C (second compound 1 µM, first compound 0.00316 µM): 80%
- viability, T/C (second compound 1 µM, first compound 0.01 µM): 10.3%
- viability, T/C (second compound 1 µM, first compound 0.0316 µM): 5.66%
- viability, T/C (second compound 1 µM, first compound 0.1 µM): 3.63%
- viability, T/C (second compound 3.16 µM, first compound 0.000316 µM): 101%
- viability, T/C (second compound 3.16 µM, first compound 0.001 µM): 95.2%
- viability, T/C (second compound 3.16 µM, first compound 0.00316 µM): 65.2%
- viability, T/C (second compound 3.16 µM, first compound 0.01 µM): 12.4%
- viability, T/C (second compound 3.16 µM, first compound 0.0316 µM): 6.41%
- viability, T/C (second compound 3.16 µM, first compound 0.1 µM): 2.85%
- viability, T/C (second compound 10 µM, first compound 0.000316 µM): 84%
- viability, T/C (second compound 10 µM, first compound 0.001 µM): 71.7%
- viability, T/C (second compound 10 µM, first compound 0.00316 µM): 50.3%
- viability, T/C (second compound 10 µM, first compound 0.01 µM): 6.62%
- viability, T/C (second compound 10 µM, first compound 0.0316 µM): 5.01%
- viability, T/C (second compound 10 µM, first compound 0.1 µM): 3.36%
